Source: patent publication US8791108B2, “Inhibitors of human immunodeficiency virus replication” (priority 2011, dated 2014)

These molecules were tested on recombinant NL-Rluc virus (assay: Inhibition of HIV replication (NL-RLuc luciferase reporter virus, MT-2 cells)). Settings: Human immunodeficiency virus 1, MT2, 120 h, read-out: Activity.
Format: cell-based

`COc1ccc(CNC(=O)c2cc3nc(C)c([C@H](OC(C)(C)C)C(=O)O)c(-c4cc(F)c5c(c4C)CCCO5)n3n2)cc1` [Example 110, (2S)-2-(tert-butoxy)-2-(7-(8-fluoro-5-methylchroman-6-yl)-2-((4-methoxybenzyl)carbamoyl)-5-methylpyrazolo[1,5-a]pyrimidin-6-yl)acetic acid] and `Cc1nc2cc(C(=O)NCc3ccc(F)cc3)nn2c(-c2cc(F)c3c(c2C)CCCO3)c1[C@H](OC(C)(C)C)C(=O)O` [Example 1, (2S)-2-(tert-butoxy)-2-(7-(8-fluoro-5-methylchroman-6-yl)-2-((4-fluorobenzyl)carbamoyl)-5-methylpyrazolo[1,5-a]pyrimidin-6-yl)acetic acid] cannot be ordered by EC50: less than 0.1 µM for the first, less than 0.1 µM for the second.

`CCCNC(=O)c1cc2nc(C)c([C@H](OC(C)(C)C)C(=O)O)c(-c3cc(F)c4c(c3C)CCCO4)n2n1` [Example 124, (2S)-2-(tert-butoxy)-2-(7-(8-fluoro-5-methylchroman-6-yl)-5-methyl-2-(propylcarbamoyl)pyrazolo[1,5-a]pyrimidin-6-yl)acetic acid] and `Cc1nc2cc(C(=O)NCC(C)(C)C)nn2c(-c2cc(F)c3c(c2C)CCCO3)c1[C@H](OC(C)(C)C)C(=O)O` [Example 127, (2S)-2-(tert-butoxy)-2-(7-(8-fluoro-5-methylchroman-6-yl)-5-methyl-2-(neopentylcarbamoyl)pyrazolo[1,5-a]pyrimidin-6-yl)acetic acid] fall in the same range of EC50: 0.1 to 1 µM for the first, 0.1 to 1 µM for the second.

`Cc1nc2cc(C(=O)NCc3ccccc3C(F)(F)F)nn2c(-c2cc(F)c3c(c2C)CCCO3)c1[C@H](OC(C)(C)C)C(=O)O` [Example 125, (2S)-2-(tert-butoxy)-2-(7-(8-fluoro-5-methylchroman-6-yl)-5-methyl-2-((2-(trifluoromethyl)benzyl)carbamoyl)pyrazolo[1,5-a]pyrimidin-6-yl)acetic acid] and `Cc1nc2cc(C(=O)NCc3ccc(F)cc3O)nn2c(-c2cc(F)c3c(c2C)CCCO3)c1[C@H](OC(C)(C)C)C(=O)O` [Example 63, (2S)-2-(tert-butoxy)-2-(2-((4-fluoro-2-hydroxybenzyl)carbamoyl)-7-(8-fluoro-5-methylchroman-6-yl)-5-methylpyrazolo[1,4-a]pyrimidin-6yl)acetic acid] cannot be ordered by EC50: less than 0.1 µM for the first, less than 0.1 µM for the second.

`Cc1nc2cc(C(=O)NCCc3nc4ccccc4s3)nn2c(-c2cc(F)c3c(c2C)CCCO3)c1[C@H](OC(C)(C)C)C(=O)O` [Example 119, (2S)-2-(2-((2-(benzo[d]thiazol-2-yl)ethyl)carbamoyl)-7-(8-fluoro-5-methylchroman-6-yl)-5-methylpyrazolo[1,5-a]pyrimidin-6-yl)-2-(tert-butoxy)acetic acid] and `Cc1nc2cc(C(=O)NCc3nc4ccccc4s3)nn2c(-c2cc(F)c3c(c2C)CCCO3)c1[C@H](OC(C)(C)C)C(=O)O` [Example 122, (2S)-2-(2-((benzo[d]thiazol-2-ylmethyl)carbamoyl)-7-(8-fluoro-5-methylchroman-6-yl)-5-methylpyrazolo[1,5-a]pyrimidin-6-yl)-2-(tert-butoxy)acetic acid] cannot be ordered by EC50: less than 0.1 µM for the first, less than 0.1 µM for the second.

`Cc1nc2cc(C(=O)NCC3CCN(C(=O)C4CC4)CC3)nn2c(-c2cc(F)c3c(c2C)CCCO3)c1[C@H](OC(C)(C)C)C(=O)O` [Example 58, (2S)-2-(tert-butoxy)-2-(2-(((1-(cyclopropanecarbonyl)piperidin-4-yl)methyl)carbamoyl)-7-(8-fluoro-5-methylchroman-6-yl)-5-methylpyrazolo[1,5-a]pyrimidin-6-yl)acetic acid] and `Cc1nc2cc(C(=O)NCC3CCN(C(=O)C(C)C)CC3)nn2c(-c2cc(F)c3c(c2C)CCCO3)c1[C@H](OC(C)(C)C)C(=O)O` [Example 2, (2S)-2-(tert-Butoxy)-2-(7-(8-fluoro-5-methylchroman-6-yl)-2-(((1-isobutyrylpiperidin-4-yl)methyl)carbamoyl)-5-methylpyrazolo[1,5-a]pyrimidin-6-yl)acetic acid] cannot be ordered by EC50: greater than 1 µM for the first, greater than 1 µM for the second.

`Cc1nc2cc(C(=O)NCCCN3CCOCC3)nn2c(-c2cc(F)c3c(c2C)CCCO3)c1[C@H](OC(C)(C)C)C(=O)O` [Example 107] and `Cc1nc2cc(C(=O)NCCN3CCCC3)nn2c(-c2cc(F)c3c(c2C)CCCO3)c1[C@H](OC(C)(C)C)C(=O)O` [Example 75, (2S)-2-(tert-butoxy)-2-(7-(8-fluoro-5-methylchroman-6-yl)-5-methyl-2-((2-(pyrrolidin-1-yl)ethyl)carbamoyl)pyrazolo[1,5-a]pyrimidin-6-yl)acetic acid] cannot be ordered by EC50: greater than 1 µM for the first, greater than 1 µM for the second.

Compared with `Cc1nc2cc(C(=O)NCCCN3CCCC3=O)nn2c(-c2cc(F)c3c(c2C)CCCO3)c1[C@H](OC(C)(C)C)C(=O)O` [Example 76], `Cc1nc2cc(C(=O)NCC3CC3)nn2c(-c2cc(F)c3c(c2C)CCCO3)c1[C@H](OC(C)(C)C)C(=O)O` [Example 43, (2S)-2-(tert-butoxy)-2-(2-((cyclopropylmethyl)carbamoyl)-7-(8-fluoro-5-methylchroman-6-yl)-5-methylpyrazolo[1,5-a]pyrimidin-6-yl)acetic acid] is lower in EC50: greater than 1 µM for the first, 0.1 to 1 µM for the second. The second is the more potent here.

First: Cc1cc(CNC(=O)c2cc3nc(C)c([C@H](OC(C)(C)C)C(=O)O)c(/C=C/CC(C)C)n3n2)ccc1F [Example 149, (S,E)-2-(tert-Butoxy)-2-(2-((4-fluoro-3-methylbenzyl)carbamoyl)-5-methyl-7-(4-methylpent-1-en-1-yl)pyrazolo[1,5-a]pyrimidin-6-yl)acetic acid]
Second: Cc1cc(CNC(=O)c2cc3nc(C)c([C@H](OC(C)(C)C)C(=O)O)c(-c4ccc5c(c4Cl)NCCO5)n3n2)ccc1F [Example 141, (2S)-2-(tert-Butoxy)-2-(7-(5-chloro-3,4-dihydro-2H-benzo[b][1,4]oxazin-6-yl)-2-((4-fluoro-3-methylbenzyl)carbamoyl)-5-methylpyrazolo[1,5-a]pyrimidin-6-yl)acetic acid]
The EC50 of the first is higher: greater than 1 µM for the first, 0.1 to 1 µM for the second.

`Cc1nc2cc(C(=O)NCc3cc(Cl)cc(Cl)c3)nn2c(-c2cc(F)c3c(c2C)CCCO3)c1[C@H](OC(C)(C)C)C(=O)O` [Example 118, (2S)-2-(tert-butoxy)-2-(2-((3,5-dichlorobenzyl)carbamoyl)-7-(8-fluoro-5-methylchroman-6-yl)-5-methylpyrazolo[1,5-a]pyrimidin-6-yl)acetic acid] and `Cc1cccc(CNC(=O)c2cc3nc(C)c([C@H](OC(C)(C)C)C(=O)O)c(-c4cc(F)c5c(c4C)CCCO5)n3n2)c1` [Example 6] cannot be ordered by EC50: less than 0.1 µM for the first, less than 0.1 µM for the second.

First: Cc1cccc(CN(C)C(=O)c2cc3nc(C)c([C@H](OC(C)(C)C)C(=O)O)c(-c4cc(F)c5c(c4C)CCCO5)n3n2)c1 [Example 20, (2S)-2-(tert-butoxy)-2-(7-(8-fluoro-5-methylchroman-6-yl)-5-methyl-2-(methyl(3-methylbenzyl)carbamoyl)pyrazolo[1,5-a]pyrimidin-6-yl)acetic acid]
Second: Cc1nc2cc(C(=O)NCc3cccnc3)nn2c(-c2cc(F)c3c(c2C)CCCO3)c1[C@H](OC(C)(C)C)C(=O)O [Example 61, (2S)-2-(tert-butoxy)-2-(7-(8-fluoro-5-methylchroman-6-yl)-5-methyl-2-((pyridin-3-ylmethyl)carbamoyl)pyrazolo[1,5-a]pyrimidin-6-yl)acetic acid]
The EC50 of the first is lower: less than 0.1 µM for the first, greater than 1 µM for the second. The first is the more potent here.

Compared with `Cc1nc2cc(C(=O)NCc3ccc(C#N)cc3)nn2c(-c2cc(F)c3c(c2C)CCCO3)c1[C@H](OC(C)(C)C)C(=O)O` [Example 121, (2S)-2-(tert-butoxy)-2-(2-((4-cyanobenzyl)carbamoyl)-7-(8-fluoro-5-methylchroman-6-yl)-5-methylpyrazolo[1,5-a]pyrimidin-6-yl)acetic acid], `Cc1nc2cc(C(=O)NCc3ccc(F)c(C4CC4)c3)nn2c(-c2cc(F)c3c(c2C)CCCO3)c1[C@H](OC(C)(C)C)C(=O)O` [Example 26] is lower in EC50: 0.1 to 1 µM for the first, less than 0.1 µM for the second. The second is the more potent here.

Compared with `Cc1nc2cc(C(=O)NCc3csc(-c4ccccc4)n3)nn2c(-c2cc(F)c3c(c2C)CCCO3)c1[C@H](OC(C)(C)C)C(=O)O` [Example 45, (2S)-2-(tert-butoxy)-2-(7-(8-fluoro-5-methylchroman-6-yl)-5-methyl-2-(((2-phenylthiazol-4-yl)methyl)carbamoyl)pyrazolo[1,5-a]pyrimidin-6-yl)acetic acid], `Cc1nc2cc(C(=O)NCc3ncc(F)cc3F)nn2c(-c2cc(F)c3c(c2C)CCCO3)c1[C@H](OC(C)(C)C)C(=O)O` [Example 36, (2S)-2-(tert-butoxy)-2-(2-(((3,5-difluoropyridin-2-yl)methyl)carbamoyl)-7-(8-fluoro-5-methylchroman-6-yl)-5-methylpyrazolo[1,5-a]pyrimidin-6-yl)acetic acid] is higher in EC50: less than 0.1 µM for the first, 0.1 to 1 µM for the second.

First: Cc1nc2cc(C(=O)NCCC3(O)CCCC3)nn2c(-c2cc(F)c3c(c2C)CCCO3)c1[C@H](OC(C)(C)C)C(=O)O [Example 134, (2S)-2-(tert-butoxy)-2-(7-(8-fluoro-5-methylchroman-6-yl)-2-((2-(1-hydroxycyclopentyl)ethyl)carbamoyl)-5-methylpyrazolo[1,5-a]pyrimidin-6-yl)acetic acid]
Second: Cc1nc2cc(C(=O)NCc3ccc(F)cc3-n3cncn3)nn2c(-c2cc(F)c3c(c2C)CCCO3)c1[C@H](OC(C)(C)C)C(=O)O [Example 11, (2S)-2-(tert-butoxy)-2-(2-((4-fluoro-2-(1H-1,2,4-triazol-1-yl)benzyl)carbamoyl)-7-(8-fluoro-5-methylchroman-6-yl)-5-methylpyrazolo[1,5-a]pyrimidin-6-yl)acetic acid]
The EC50 of the first is higher: greater than 1 µM for the first, 0.1 to 1 µM for the second. The second is the more potent here.

First: Cc1cc(CNC(=O)c2nn3c(-c4cc(F)c5c(c4C)CCCO5)c([C@H](OC(C)(C)C)C(=O)O)c(C)nc3c2F)ccc1F [Example 139, (2S)-2-(tert-Butoxy)-2-(3-fluoro-2-((4-fluoro-3-methylbenzyl)carbamoyl)-7-(8-fluoro-5-methylchroman-6-yl)-5-methylpyrazolo[1,5-a]pyrimidin-6-yl)acetic acid]
Second: Cc1nc2cc(C(=O)NCc3ccc(F)cc3-c3ncnn3C)nn2c(-c2cc(F)c3c(c2C)CCCO3)c1[C@H](OC(C)(C)C)C(=O)O [Example 18, (2S)-2-(tert-butoxy)-2-(2-((4-fluoro-2-(1-methyl-1H-1,2,4-triazol-5-yl)benzyl)carbamoyl)-7-(8-fluoro-5-methylchroman-6-yl)-5-methylpyrazolo[1,5-a]pyrimidin-6-yl)acetic acid]
The EC50 of the first is lower: less than 0.1 µM for the first, 0.1 to 1 µM for the second.

Same assay, conditions: Human immunodeficiency virus 1, MT2, 120 h, read-out: EC50 μM

First: Cc1cc(CNC(=O)c2cc3nc(C)c([C@H](OC(C)(C)C)C(=O)O)c(-c4ccc5c(c4Cl)NCCO5)n3n2)ccc1F [Example 141, (2S)-2-(tert-Butoxy)-2-(7-(5-chloro-3,4-dihydro-2H-benzo[b][1,4]oxazin-6-yl)-2-((4-fluoro-3-methylbenzyl)carbamoyl)-5-methylpyrazolo[1,5-a]pyrimidin-6-yl)acetic acid]
Second: Cc1nc2cc(C(=O)NCc3ccc(F)cc3)nn2c(-c2cc(F)c3c(c2C)CCCO3)c1[C@H](OC(C)(C)C)C(=O)O [Example 1, (2S)-2-(tert-butoxy)-2-(7-(8-fluoro-5-methylchroman-6-yl)-2-((4-fluorobenzyl)carbamoyl)-5-methylpyrazolo[1,5-a]pyrimidin-6-yl)acetic acid]
The EC50 of the first is 2.2-fold higher: 0.114 µM for the first, 0.053 µM for the second.

Going from `Cc1nc2cc(C(=O)NCc3ncc(F)cc3F)nn2c(-c2cc(F)c3c(c2C)CCCO3)c1[C@H](OC(C)(C)C)C(=O)O` [Example 36, (2S)-2-(tert-butoxy)-2-(2-(((3,5-difluoropyridin-2-yl)methyl)carbamoyl)-7-(8-fluoro-5-methylchroman-6-yl)-5-methylpyrazolo[1,5-a]pyrimidin-6-yl)acetic acid] to `Cc1nc2cc(C(=O)NCc3ccc(F)cc3-c3ncnn3C)nn2c(-c2cc(F)c3c(c2C)CCCO3)c1[C@H](OC(C)(C)C)C(=O)O` [Example 18, (2S)-2-(tert-butoxy)-2-(2-((4-fluoro-2-(1-methyl-1H-1,2,4-triazol-5-yl)benzyl)carbamoyl)-7-(8-fluoro-5-methylchroman-6-yl)-5-methylpyrazolo[1,5-a]pyrimidin-6-yl)acetic acid], the EC50 rises from 0.255 µM to 0.547 µM (2.1-fold). The first is the more potent here.
